Type in all cases: cell-based
The subject of assay [1] is E. coli ESS. The assay can be described thus: Antibacterial in vitro activity (MIC), E. coli ESS. Conditions: Escherichia coli.
The test system of assay [2] is E. coli JT4. The assay can be described thus: Antibacterial in vitro activity (MIC), E. coli JT4. Conditions: Escherichia coli.
Assay [3] relates to E. coli JT425. The assay can be described thus: Antibacterial in vitro activity (MIC), E. coli JT425. Conditions: Escherichia coli.
The test system of assay [4] is E. coli NCTC 10418. Kind of assay: Antibacterial in vitro activity (MIC), E. coli NCTC 10418. Conditions: Escherichia coli, NCTC10418.
Assay [5] concerns Ps. aeruginosa NCTC 10662. The assay can be described thus: Antibacterial in vitro activity (MIC), Ps. aeruginosa NCTC 10662. Conditions: Pseudomonas aeruginosa.
Assay [6] has as its system Ps. aeruginosa Dalgleish. The assay can be described thus: Antibacterial in vitro activity (MIC), Ps. aeruginosa Dalgleish. Conditions: Pseudomonas aeruginosa; Ps. aeruginosa Dalgleish 10^-2.
For assay [7], the system named is S. marcesens US32. Kind of assay: Antibacterial in vitro activity (MIC), S. marcesens US32.
Assay [8] has as its system K. aerogenes A. The assay can be described thus: Antibacterial in vitro activity (MIC), K. aerogenes A. Conditions: Klebsiella aerogenes.
The subject of assay [9] is E. cloacae N1. Kind of assay: Antibacterial in vitro activity (MIC), E. cloacae N1. Conditions: Enterobacter cloacae.
The test system of assay [10] is P. mirabilis C977. Kind of assay: Antibacterial in vitro activity (MIC), P. mirabilis C977. Conditions: Proteus mirabilis.
Assay [11] relates to P. rettgeri. Kind of assay: Antibacterial in vitro activity (MIC), P. rettgeri. Conditions: Providencia rettgeri.
The subject of assay [12] is N. catarrhalis 1502. Kind of assay: Antibacterial in vitro activity (MIC), N. catarrhalis 1502.
The subject of assay [13] is S. pyogenes CN10. The assay can be described thus: Antibacterial in vitro activity (MIC), S. pyogenes CN10. Conditions: Streptococcus pyogenes.

For `CCN1CCN(C(=O)N[C@@H](C(=O)N[C@@H]2C(=O)N3[C@@H](C(=O)O)CS[C@H]23)c2ccc(O)c(O)c2)C(=O)C1=O` [Example 3, Sodium 6,β[D-2-(4-ethyl-2,3-dioxopiperazine-1-carbonylamino)-2-(3,4-dihydroxyphenyl)]acetamidobisnorpenicillanate], the MIC (usually the lowest concentration that inhibits growth of the organism) in [1] came to 20 µg/mL; in [2] it was 1000 µg/mL; in [3], 50 µg/mL; in [4], 20 µg/mL; in assay [5] (NCTC10662, Ps. aeruginosa NCTC 10662) it was 1000 µg/mL; in assay [5] (NCTC10662, Ps. aeruginosa NCTC 10662 10^-2) it was 100 µg/mL. Besides, the minimum inhibitory concentration (MIC) stood at 2500 µg/mL in assay [6]; 200 µg/mL in [7]; 50 µg/mL in [8]; 500 µg/mL in assay [9]; 100 µg/mL in assay [10]; 200 µg/mL in assay [11]. In addition, the MIC in assay [12] was 20 µg/mL; in assay [13], 500 µg/mL.

The record behind these values is patent US4540688A, “β-Lactam antibiotics” (Beecham Group p.l.c., priority 1982, dated 1985).
